Laboratory results: PMC5218480 (PLoS ONE, 2017)

Tested on: MV-4-11 cells
Experiment: Gene expression microarray analysis (Affymetrix PrimeView) and GSEA
Format: cell-based, human
Set-up: RFU PODN (11730768_x_at) / Fold change /veh PODN (11730768_x_at) / RFU LINC00158 (11744669_a_at) / Fold change /veh LINC00158 (11744669_a_at) / RFU DUSP10 (11751237_a_at) / Fold change /veh DUSP10 (11751237_a_at) / RFU ID3 (11757404_x_at) / Fold change /veh ID3 (11757404_x_at) / RFU PLEKHG5 (11737974_s_at) / Fold change /veh PLEKHG5 (11737974_s_at) / RFU LRRC4B (11730491_at) / Fold change /veh LRRC4B (11730491_at) / RFU GIMAP4 (11747438_a_at) / Fold change /veh GIMAP4 (11747438_a_at) / RFU KRT8 (11758183_x_at) / Fold change /veh KRT8 (11758183_x_at) / RFU CNN1 (11734310_a_at) / Fold change /veh CNN1 (11734310_a_at) / RFU VPS37D (11726825_at) / Fold change /veh VPS37D (11726825_at) / RFU C10orf10 (11716522_x_at) / Fold change /veh C10orf10 (11716522_x_at) / RFU KIR2DL2 /// KIR2DL4 /// KIR2DL5A /// KIR2DL5B /// KIR2DS1 /// KIR2DS2 /// KIR2DS3 /// KIR2DS4 /// KIR3DL3 /// KIR3DL3 /// KIR3DS1 (11738374_at) / Fold change /veh KIR2DL2 /// KIR2DL4 /// KIR2DL5A /// KIR2DL5B /// KIR2DS1 /// KIR2DS2 /// KIR2DS3 /// KIR2DS4 /// KIR3DL3 /// KIR3DL3 /// KIR3DS1 (11738374_at) / RFU C1QL1 (11718748_at) / Fold change /veh C1QL1 (11718748_at) / RFU TMPRSS4 (11747572_a_at) / Fold change /veh TMPRSS4 (11747572_a_at) / RFU HAMP (11756126_x_at) / Fold change /veh HAMP (11756126_x_at) / RFU RNFT2 (11725882_a_at) / Fold change /veh RNFT2 (11725882_a_at) / RFU NR4A2 (11747474_a_at) / Fold change /veh NR4A2 (11747474_a_at) / RFU ABCC12 (11746883_a_at) / Fold change /veh ABCC12 (11746883_a_at) / RFU TMEM136 (11760407_x_at) / Fold change /veh TMEM136 (11760407_x_at) / RFU CLDN22 /// WWC2 (11732394_at) / Fold change /veh CLDN22 /// WWC2 (11732394_at) / RFU HLA-DPB1 (11760878_x_at) / Fold change /veh HLA-DPB1 (11760878_x_at) / RFU SPINT1 (11716480_a_at) / Fold change /veh SPINT1 (11716480_a_at) / RFU GAP43 (11754022_s_at) / Fold change /veh GAP43 (11754022_s_at) / RFU A4GNT (11735810_at) / Fold change /veh A4GNT (11735810_at) / RFU PRB3 (11715151_x_at) / Fold change /veh PRB3 (11715151_x_at) / RFU TUBB4B (11761932_at) / Fold change /veh TUBB4B (11761932_at) / RFU CAPN14 (11732068_a_at) / Fold change /veh CAPN14 (11732068_a_at) / RFU TMCC2 (11721928_a_at) / Fold change /veh TMCC2 (11721928_a_at) / RFU IRGQ (11745062_a_at) / Fold change /veh IRGQ (11745062_a_at) / RFU FAM174B (11720279_a_at) / Fold change /veh FAM174B (11720279_a_at) / RFU TMPRSS4 (11748680_a_at) / Fold change /veh TMPRSS4 (11748680_a_at) / RFU FAM212B (11763350_a_at) / Fold change /veh FAM212B (11763350_a_at) / RFU PLEKHG5 (11743358_a_at) / Fold change /veh PLEKHG5 (11743358_a_at) / RFU ZSCAN30 (11745921_a_at) / Fold change /veh ZSCAN30 (11745921_a_at) / RFU CMKLR1 (11741424_a_at) / Fold change /veh CMKLR1 (11741424_a_at) / RFU LOC101060620 /// MAPK8IP1 (11723275_at) / Fold change /veh LOC101060620 /// MAPK8IP1 (11723275_at) / RFU SPTSSB (11747773_x_at) / Fold change /veh SPTSSB (11747773_x_at) / RFU PRSS12 (11739890_at) / Fold change /veh PRSS12 (11739890_at) / RFU BIN1 (11741810_x_at) / Fold change /veh BIN1 (11741810_x_at) / RFU WNT11 (11732464_a_at) / Fold change /veh WNT11 (11732464_a_at) / RFU C10orf10 (11716521_a_at) / Fold change /veh C10orf10 (11716521_a_at) / RFU C5orf56 (11738089_at) / Fold change /veh C5orf56 (11738089_at) / RFU CYB561 (11721691_x_at) / Fold change /veh CYB561 (11721691_x_at) / RFU ANKRD19P (11752326_a_at) / Fold change /veh ANKRD19P (11752326_a_at) / RFU OR2T12 /// OR2T33 /// OR2T8 (11738714_s_at) / Fold change /veh OR2T12 /// OR2T33 /// OR2T8 (11738714_s_at) / RFU VCAN (11748164_a_at) / Fold change /veh VCAN (11748164_a_at) / RFU JSRP1 (11732532_at) / Fold change /veh JSRP1 (11732532_at) / RFU KRTAP10-11 (11738290_x_at) / Fold change /veh KRTAP10-11 (11738290_x_at) / RFU MYO3A (11730013_a_at) / Fold change /veh MYO3A (11730013_a_at) / RFU EBF3 (11725865_a_at) / Fold change /veh EBF3 (11725865_a_at) / RFU CAMK2N1 (11719241_x_at) / Fold change /veh CAMK2N1 (11719241_x_at) / RFU C5orf56 (11738088_a_at) / Fold change /veh C5orf56 (11738088_a_at) / RFU OLFML3 (11715873_a_at) / Fold change /veh OLFML3 (11715873_a_at) / RFU LOC100653217 /// NTM (11731650_a_at) / Fold change /veh LOC100653217 /// NTM (11731650_a_at) / RFU MAPK11 (11762145_a_at) / Fold change /veh MAPK11 (11762145_a_at) / RFU FIZ1 (11724087_x_at) / Fold change /veh FIZ1 (11724087_x_at) / RFU OASL (11726364_x_at) / Fold change /veh OASL (11726364_x_at) / RFU SOX15 (11748057_x_at) / Fold change /veh SOX15 (11748057_x_at) / RFU CD79A (11719716_a_at) / Fold change /veh CD79A (11719716_a_at) / RFU HIST1H1D (11736915_at) / Fold change /veh HIST1H1D (11736915_at) / RFU CASKIN2 (11723855_a_at) / Fold change /veh CASKIN2 (11723855_a_at) / RFU LOC730098 (11760151_x_at) / Fold change /veh LOC730098 (11760151_x_at) / RFU OR4N2 (11742367_at) / Fold change /veh OR4N2 (11742367_at) / RFU PRRT2 (11749266_a_at) / Fold change /veh PRRT2 (11749266_a_at) / RFU SNX32 (11753110_a_at) / Fold change /veh SNX32 (11753110_a_at) / RFU CDHR5 (11726645_a_at) / Fold change /veh CDHR5 (11726645_a_at) / RFU RCAN1 (11760418_a_at) / Fold change /veh RCAN1 (11760418_a_at) / RFU FAM167A (11723789_a_at) / Fold change /veh FAM167A (11723789_a_at) / RFU FAM26E (11764081_at) / Fold change /veh FAM26E (11764081_at) / RFU ISYNA1 (11749810_s_at) / Fold change /veh ISYNA1 (11749810_s_at) / RFU ACY1 (11761880_at) / Fold change /veh ACY1 (11761880_at) / RFU 11764098_at / Fold change /veh 11764098_at / RFU SAMD14 (11745864_x_at) / Fold change /veh SAMD14 (11745864_x_at) / RFU NPB (11741838_a_at) / Fold change /veh NPB (11741838_a_at) / RFU TMPRSS6 (11731388_a_at) / Fold change /veh TMPRSS6 (11731388_a_at) / RFU KRTAP10-2 (11738614_at) / Fold change /veh KRTAP10-2 (11738614_at) / RFU ARHGAP8 /// PRR5-ARHGAP8 (11727945_x_at) / Fold change /veh ARHGAP8 /// PRR5-ARHGAP8 (11727945_x_at) / RFU KRTAP5-7 /// NADSYN1 (11734609_at) / Fold change /veh KRTAP5-7 /// NADSYN1 (11734609_at) / RFU RASL12 (11751679_a_at) / Fold change /veh RASL12 (11751679_a_at) / RFU CDKN2B (11736163_a_at) / Fold change /veh CDKN2B (11736163_a_at) / RFU PRF1 (11729649_at) / Fold change /veh PRF1 (11729649_at) / RFU, ZNF638 /// ZNF638-IT1 / Fold change vs veh, ZNF638 /// ZNF638-IT1 / RFU, PANK3 / Fold change vs veh, PANK3 / RFU, SH3YL1 / Fold change vs veh, SH3YL1 / RFU, ZEB2 / Fold change vs veh, ZEB2 / RFU, NRIP1 / Fold change vs veh, NRIP1 / RFU, PTTG1IP / Fold change vs veh, PTTG1IP / RFU, CAPN2 / Fold change vs veh, CAPN2 / RFU, MED14 / Fold change vs veh, MED14 / RFU, SNORA58 / Fold change vs veh, SNORA58 / RFU, C1orf63 / Fold change vs veh, C1orf63 / RFU, LRRFIP1 / Fold change vs veh, LRRFIP1 / RFU, NDUFAF7 / Fold change vs veh, NDUFAF7 / RFU, SLC12A2 / Fold change vs veh, SLC12A2 / RFU, IBTK / Fold change vs veh, IBTK / RFU, ESF1 / Fold change vs veh, ESF1 / Fold change vs veh, TMEM50B / RFU, TAOK1 / Fold change vs veh, TAOK1 / RFU, ACBD3 / Fold change vs veh, ACBD3 / RFU, TMA16 / Fold change vs veh, TMA16 / RFU, RWDD3 / Fold change vs veh, RWDD3 / RFU, BCAT1 / Fold change vs veh, BCAT1 / RFU, EDEM3 / Fold change vs veh, EDEM3 / RFU, TMEM33 / Fold change vs veh, TMEM33 / RFU, WDR75 / Fold change vs veh, WDR75 / RFU, AHCTF1 / Fold change vs veh, AHCTF1 / RFU, TFRC / Fold change vs veh, TFRC / RFU, ZDHHC17 / Fold change vs veh, ZDHHC17 / RFU, NOM1 / Fold change vs veh, NOM1 / RFU, ARL8B / Fold change vs veh, ARL8B / RFU, ZBTB11 / Fold change vs veh, ZBTB11 / RFU, TAMM41 / Fold change vs veh, TAMM41 / RFU, KIAA1704 /// LOC100996395 / Fold change vs veh, KIAA1704 /// LOC100996395 / RFU, ING1 / Fold change vs veh, ING1 / RFU, TRMT61B / Fold change vs veh, TRMT61B / RFU, FUBP3 / Fold change vs veh, FUBP3 / RFU, TP53 / Fold change vs veh, TP53 / RFU, TNKS2 / Fold change vs veh, TNKS2 / RFU, ZFP14 / Fold change vs veh, ZFP14 / RFU, ACTR2 / Fold change vs veh, ACTR2 / RFU, PPP3R1 / Fold change vs veh, PPP3R1 / RFU, PIK3R1 / Fold change vs veh, PIK3R1 / RFU, HNRNPA1 / Fold change vs veh, HNRNPA1 / RFU, RNF170 / Fold change vs veh, RNF170 / RFU, ZNF28 / Fold change vs veh, ZNF28 / RFU, RNGTT / Fold change vs veh, RNGTT / RFU, OGT / Fold change vs veh, OGT / RFU, BRD1 / Fold change vs veh, BRD1 / RFU, MARS / Fold change vs veh, MARS / RFU, ZNF655 / Fold change vs veh, ZNF655 / RFU, FAHD1 / Fold change vs veh, FAHD1 / RFU, BDP1 / Fold change vs veh, BDP1 / RFU, LRRCC1 / Fold change vs veh, LRRCC1 / RFU, ARID1A / Fold change vs veh, ARID1A / RFU, ZNF146 / Fold change vs veh, ZNF146 / RFU, ZNF330 / Fold change vs veh, ZNF330 / RFU, GPN3 / Fold change vs veh, GPN3 / RFU, C9orf123 / Fold change vs veh, C9orf123 / RFU, N4BP2L2 / Fold change vs veh, N4BP2L2 / RFU, ARFIP1 / Fold change vs veh, ARFIP1 / RFU, FAM179B / Fold change vs veh, FAM179B / RFU, BCL10 / Fold change vs veh, BCL10 / RFU, UHRF1BP1L / Fold change vs veh, UHRF1BP1L / RFU, BET1 / Fold change vs veh, BET1 / RFU, CNOT2 / Fold change vs veh, CNOT2 / RFU, ZNF268 / Fold change vs veh, ZNF268 / Fold change vs veh, ZNF507 / RFU, DGCR2 / Fold change vs veh, DGCR2 / RFU, WDSUB1 / Fold change vs veh, WDSUB1 / Fold change vs veh, HSP90B1 /// MIR3652 / RFU, ADSS / Fold change vs veh, ADSS / RFU, GK / Fold change vs veh, GK / RFU, ZNF148 / Fold change vs veh, ZNF148 / RFU, TAF9 / Fold change vs veh, TAF9 / RFU, SLC1A5 / Fold change vs veh, SLC1A5 / RFU, SLMO2 / Fold change vs veh, SLMO2 / RFU, ABCC4 / Fold change vs veh, ABCC4 / RFU, LOC101060439 /// RAP1B / Fold change vs veh, LOC101060439 /// RAP1B / RFU, RFX7 / Fold change vs veh, RFX7 / RFU, GTPBP10 / Fold change vs veh, GTPBP10 / RFU, CNEP1R1 / Fold change vs veh, CNEP1R1 / RFU, BIVM-ERCC5 /// ERCC5 / Fold change vs veh, BIVM-ERCC5 /// ERCC5 / RFU, ILF3 / Fold change vs veh, ILF3 / RFU 11762660_at / Fold change /veh 11762660_at / RFU VCAN (11757783_s_at) / Fold change /veh VCAN (11757783_s_at) / RFU DDX43 (11728927_at) / Fold change /veh DDX43 (11728927_at) / RFU KRT8 (11758188_x_at) / Fold change /veh KRT8 (11758188_x_at) / RFU NKD1 (11759106_at) / Fold change /veh NKD1 (11759106_at) / RFU SRD5A1 (11742802_a_at) / Fold change /veh SRD5A1 (11742802_a_at) / RFU TPSAB1 /// TPSB2 (11721975_s_at) / Fold change /veh TPSAB1 /// TPSB2 (11721975_s_at) / RFU GSTM3 (11746129_a_at) / Fold change /veh GSTM3 (11746129_a_at) / RFU IL23R (11737362_x_at) / Fold change /veh IL23R (11737362_x_at) / RFU TMEM51 (11727254_a_at) / Fold change /veh TMEM51 (11727254_a_at) / RFU PIWIL2 (11732686_x_at) / Fold change /veh PIWIL2 (11732686_x_at) / RFU ORM1 (11744905_x_at) / Fold change /veh ORM1 (11744905_x_at) / RFU CCDC152 (11743942_at) / Fold change /veh CCDC152 (11743942_at) / RFU ECM1 (11717891_a_at) / Fold change /veh ECM1 (11717891_a_at) / RFU IL23R (11748794_a_at) / Fold change /veh IL23R (11748794_a_at) / RFU TNFAIP8L3 (11732012_x_at) / Fold change /veh TNFAIP8L3 (11732012_x_at) / RFU MBOAT4 (11741988_at) / Fold change /veh MBOAT4 (11741988_at) / RFU 11764193_at / Fold change /veh 11764193_at / RFU TMEM53 (11763286_at) / Fold change /veh TMEM53 (11763286_at) / RFU MAGEB2 (11727129_at) / Fold change /veh MAGEB2 (11727129_at) / RFU TMEM200A (11744735_a_at) / Fold change /veh TMEM200A (11744735_a_at) / RFU CCDC152 (11751479_a_at) / Fold change /veh CCDC152 (11751479_a_at) / RFU FAM211A (11726209_a_at) / Fold change /veh FAM211A (11726209_a_at) / RFU RGS16 (11746705_a_at) / Fold change /veh RGS16 (11746705_a_at) / RFU VCAN (11755009_s_at) / Fold change /veh VCAN (11755009_s_at) / RFU RHOB (11743442_s_at) / Fold change /veh RHOB (11743442_s_at) / RFU RGS16 (11720943_a_at) / Fold change /veh RGS16 (11720943_a_at) / RFU RGS16 (11720944_at) / Fold change /veh RGS16 (11720944_at) / RFU, VPS4B / Fold change vs veh, VPS4B / RFU, CREB1 / Fold change vs veh, CREB1 / RFU, DNAJC13 / Fold change vs veh, DNAJC13 / RFU, GNAQ / Fold change vs veh, GNAQ / RFU, CDK5R1 / Fold change vs veh, CDK5R1 / RFU, ZRANB3 / Fold change vs veh, ZRANB3 / RFU, CUL4A / Fold change vs veh, CUL4A / RFU, CCNY / Fold change vs veh, CCNY / RFU, UFL1 / Fold change vs veh, UFL1 / RFU, COG3 / Fold change vs veh, COG3 / RFU, DIAPH2 / Fold change vs veh, DIAPH2 / RFU, SKA2 / Fold change vs veh, SKA2 / RFU, AFF3 / Fold change vs veh, AFF3 / RFU, LMF1 / Fold change vs veh, LMF1 / RFU, IPO11 / Fold change vs veh, IPO11 / RFU, DFFB / Fold change vs veh, DFFB / RFU, FOXP1 / Fold change vs veh, FOXP1 / RFU, CARD8 / Fold change vs veh, CARD8 / RFU, STRN3 / Fold change vs veh, STRN3 / RFU, ADK / Fold change vs veh, ADK / RFU, RASSF2 / Fold change vs veh, RASSF2 / RFU, WIPF1 / Fold change vs veh, WIPF1 / RFU, LARP1B / Fold change vs veh, LARP1B / RFU, RASA1 / Fold change vs veh, RASA1 / RFU, RB1 / Fold change vs veh, RB1 / RFU, PPFIA1 / Fold change vs veh, PPFIA1 / RFU, MAT2A / Fold change vs veh, MAT2A / RFU, CCT5 / Fold change vs veh, CCT5 / RFU, WDR92 / Fold change vs veh, WDR92 / RFU, CUX1 / Fold change vs veh, CUX1 / RFU, TTC7A / Fold change vs veh, TTC7A / RFU, TMEM135 / Fold change vs veh, TMEM135 / RFU, DEPTOR / Fold change vs veh, DEPTOR / RFU, CPM / Fold change vs veh, CPM / RFU, DNAJB6 / Fold change vs veh, DNAJB6 / RFU, CACNA2D3 / Fold change vs veh, CACNA2D3 / RFU, DTX4 / Fold change vs veh, DTX4 / RFU, TFCP2 / Fold change vs veh, TFCP2 / RFU, GMCL1 /// GMCL1P1 / Fold change vs veh, GMCL1 /// GMCL1P1 / RFU, AEBP2 / Fold change vs veh, AEBP2 / RFU, SNHG1 /// SNORD22 /// SNORD25 /// SNORD26 /// SNORD27 /// SNORD28 /// SNORD29 /// SNORD31 / Fold change vs veh, SNHG1 /// SNORD22 /// SNORD25 /// SNORD26 /// SNORD27 /// SNORD28 /// SNORD29 /// SNORD31 / Fold change (Aza/veh), C12orf56 (ProbeSet 11735607_a_at) / Fold change (ACY-1035/veh), C12orf56 (ProbeSet 11735607_a_at) / Fold change (Aza/veh), FGFR1OP (ProbeSet 11751329_s_at) / Fold change (ACY-1035/veh), FGFR1OP (ProbeSet 11751329_s_at) / Fold change (Aza/veh), VPS36 (ProbeSet 11739960_a_at) / Fold change (ACY-1035/veh), VPS36 (ProbeSet 11739960_a_at) / RFU SYPL1 (11715823_x_at) / Fold change /veh SYPL1 (11715823_x_at) / RFU IGFBP7 (11715501_s_at) / Fold change /veh IGFBP7 (11715501_s_at) / RFU REEP3 (11722064_at) / Fold change /veh REEP3 (11722064_at) / RFU IGLL1 (11728026_x_at) / Fold change /veh IGLL1 (11728026_x_at): dose or concentration left out as unconfirmed
Conditions: MV-4-11 cells, 48 hours

SMILES: Nc1ncn([C@@H]2O[C@H](CO)[C@@H](O)[C@H]2O)c(=O)n1 [azacitidine]
- RFU TMEM136 (11760407_x_at): 16.07 RFU
